Data published in patent US4892887A, “N,N'-bis(sulfonyl)hydrazines having antineoplastic activity” (Yale University, priority 1988, dated 1990).
Read-outs that look alike come from different tables or passages of the source.

Experiments:
[1] = Alkylation of 4-(4-nitrobenzyl)pyridine, absorbance at 540 nm (modified Wheeler and Chumley); conditions: for Relative Alkylating Activity: (O.D. test sample/O.D. compound 8) × 100, pH 7.4, 37°C, 540 nm
Description: Since compounds 1-13 were conceived as prodrugs of the alkylating species (II), representative compounds of this class, viz. 1-6, 8 and 10 were tested for alkylating ability using a modification of the method of Wheeler and Chumley. This method measured the absorbance at 540 nm of the alkylated product of 4-(4-nitrobenzyl)pyridine.
^a A solution of the test sample (12 micromoles) in 1 ml of acetone,
ml of distilled water and 1 ml of TrisHCl buffer (pH 7.4) was incubated
with 4(4-nitrobenzyl) pyridine (148 micromoles in 0.4 ml of acetone) for
hr at 37°C. Following additon of 2 ml of acetone and 1.5 ml of 0.2
M NaOH, the material was extracted with 5 ml of ethyl acetate. The
absorbance was determined at 540 nm 30 seconds after the addition of the
sodium hydroxide solution. The greater the absorbance value, the greater
the degree of alkylation
^b Relative Alkylating activity = (O.D. for test sample/O.D. for […]

L1210 leukemia = experiment: Survival time of mice bearing the L1210 leukemia; assay type: in vivo, mouse (CDF-1 mice); conditions: for Av. Change wt. %: L1210 mice; for Antineoplastic Activity (max. % T/C from Table III): Table II, L1210 leukemia; for activity against the L1210 leukemia (in words): mouse, in vivo
Source text: The ascites cell forms of the L1210 leukemia, Sarcoma 180 and P388 leukemia were propagated in CDF-1 mice. […] Mice were weighed during the course of the experiments, and the percentage change in body weight from the onset to termination of therapy was used as an indication of host toxicity.
Each value represents the average of 5 animals per group.

B16 melanoma = experiment: Survival time of mice bearing the B16 melanoma; assay type: in vivo, mouse (C57B1 mice); conditions: for Max. % T/C: Table IV, B16, at optimum effective daily dose; for Av. Change in wt., %: at optimum effective daily dose, B16 mice; for dosage range of activity against the B16 melanoma: B16 melanoma in mice
Description: This tumor was propagated in C57B1mice. Transplantation was carried out by removing tumors from donor mice bearing 14-day subcutaneous tumor growths. The tissue was fragmented to make a well-dispersed cellular suspension and diluted with Fischer's medium without serum so that one gram of tissue was suspended in 5 ml of solution. A portion (0.2 ml) of the resulting cell suspension was injected intraperitoneally into each recipient animal. All compounds were administered over a wide range of dosage levels by intraperitoneal injection, beginning 24 hours after tumor implantation, once daily for 6 consecutive days. The test compounds were injected as fine suspensions following homogenization in 2 to 3 drops of 20% aqueous Tween 80 and then made up to volume with isotonic saline. […] Mice were weighed during the course of the experiments, and the percent change in body weight from onset to termination of therapy was used as an indication of drug toxicity. Determination of the sensitivity of neoplasms to these agents was based on the prolongation of survival time afforded by the drug treatments.
^a Administered once daily for six consecutive days, beginnign 24
hours after tumor transplanation, with 5 animals being used per group.
^b Average change in body weight from onset to termination of therapy
^c % T/C = average survival time of treated/control animals ×
100. Each value represents the average of 5 animals per group.

Sarcoma 180 = experiment: Survival time of mice bearing Sarcoma 180; assay type: in vivo, mouse (CDF-1 mice)
Description: (§1) The tumor-inhibitory properties of compounds 1-12 were determined by measuring their effects on the survival time of mice bearing the L1210 leukemia and in some cases Sarcoma 180, and the P388 leukemia. The ascites cell forms of the L1210 leukemia, Sarcoma 180 and P388 leukemia were propagated in CDF-1 mice. Transplantation was carried out using donor mice bearing 7-day tumor growths; experimental details are described in Agrawal et al., J. Med. Chem., 11, 700, 1968, incorporated herein by reference. Mice were weighed during the course of the experiments, and the percentage change in body weight from the onset to termination of therapy was used as an indication of host toxicity.

P388 leukemia = experiment: Survival time of mice bearing the P388 leukemia; assay type: in vivo, mouse (CDF-1 mice); conditions: at 150 mg/kg
Description: as §1

B16 melanoma cells = experiment: Cytotoxicity: colony-forming ability of B16 melanoma cells; assay type: cell-based; conditions: Mus musculus, 1 hour exposure, 12 days incubation, average of two determinations, read-out: LD50 (the source's name)
Description: The cytotoxicity of compounds 8 and 12 was determined by measuring their effects on the colony-forming ability of B16 melanoma cells. The cells were maintained in Eagle's minimum essential medium supplemented with 10% fetal bovine serum. To obtain exponentially growing B16 melanoma cells, a 25 cm^2 flask was inoculated with 10^5 cells for two days before addition of drug. The cell monolayer was exposed to various concentrations of compound for 1 hour. After exposure, the layer was washed twice with PBS to remove the compound. The cells were harvested with 2 mM EDTA in PBS, and 200 cells were plated on a 60 mm dish with 5 mL of medium. After incubation for 12 days, the colonies were stained with crystal violet and counted. […] The LD50 was determined from the individual dose-response curves.

[2] = 50 mg/kg once daily for six days
[3] = 100 mg/kg once daily for six days
[4] = 150 mg/kg once daily for six days
[5] = Mus musculus, 144 h, 100 mg/kg once daily for six days, L1210, read-out: % T/C
[6] = Mus musculus, 144 h, 150 mg/kg once daily for six days, L1210, read-out: % T/C
[7] = Mus musculus, L1210, 144 h, read-out: % T/C
[8] = Mus musculus, 144 h, 50 mg/kg once daily for six days, L1210, read-out: % T/C
[9] = 10 mg/kg once daily for six days
[10] = 20 mg/kg once daily for six days
[11] = 30 mg/kg once daily for six days

| SMILES | rate of decomposition to a reactive species (in words) [1] | Relative Alkylating Activity [1] | Average Survival Time of Treated Animals, days ± SE (L1210 leukemia; [2]) | Av. Change wt. % (L1210 leukemia; [2]) | Average Survival Time of Treated Animals, days ± SE (L1210 leukemia; [3]) | Av. Change wt. % (L1210 leukemia; [3]) | Average Survival Time of Treated Animals, days ± SE (L1210 leukemia; [4]) | Av. Change wt. % (L1210 leukemia; [4]) | response vs control in vivo at 100 mg/kg (L1210 leukemia; [5]) | response vs control in vivo at 150 mg/kg (L1210 leukemia; [6]) | Antineoplastic Activity (max. % T/C from Table III) (L1210 leukemia) | activity against the L1210 leukemia (in words) (L1210 leukemia) | Max. % T/C (B16 melanoma) | Av. Change in wt., % (B16 melanoma) | response vs control in vivo at 50 mg/kg (L1210 leukemia; [8]) | also measured |
| --- | --- | --- | --- | --- | --- | --- | --- | --- | --- | --- | --- | --- | --- | --- | --- | --- |
| Cc1ccc(S(=O)(=O)N(C)NS(=O)(=O)c2ccc(Cl)cc2)cc1 [Compound 3, N'-(p-chlorobenzenesulfonyl)-N-methyl-N-(p-toluenesulfonyl)hydrazine] | decomposed less rapidly than compound 10 | 135 | 17.4 ± 1.4 days | +3.7% | 10.8 ± 0.6 days | +10.0% | 11.2 ± 1.3 days | +6.0% | 117% | 122% | 189 % T/C | active against the L1210 leukemia | 171 % T/C | +2.9% | – | response vs control in vivo at 50 mg/kg (L1210 leukemia; [7]): 189% |
| COc1ccc(S(=O)(=O)N(C)NS(=O)(=O)c2ccc(C)cc2)cc1 [Compound 4] | – | 82 | 10.2 ± 0.5 days | +12.6% | 10.2 ± 0.2 days | +14.8% | 10.4 ± 0.2 days | +9.8% | 111% | 113% | 113 % T/C | virtually inactive | 151 % T/C | -14.0% | 111% | alkylating activity / absorbance (in words) [1]: lowest |
| Cc1ccc(S(=O)(=O)NN(C)S(=O)(=O)c2ccc(Cl)cc2)cc1 [Compound 5, N-(p-chlorobenzenesulfonyl)-N-methyl-N'-(p-toluenesulfonyl)hydrazine] | decomposed less rapidly than compound 10 | 169 | 10.4 ± 0.4 days | +5.1% | 13.0 ± 2.2 days | +5.5% | 10.0 ± 0.3 days | -4.6% | 141% | 109% | 141 % T/C | active against the L1210 leukemia | 162 % T/C | -0.4% | 113% | – |
| CN(NS(=O)(=O)c1ccccc1)S(=O)(=O)c1ccccc1 [Compound 7, N,N'-bis(benzenesulfonyl)-N-methylhydrazine] | – | – | 13.2 ± 0.7 days | -4.8% | 11.6 ± 0.2 days | -5.2% | 9.4 ± 0.4 days | -13.5% | 129% | 104% | – | – | 175 % T/C | -2.3% | 147% | Max. % T/C vs. Sarcoma 180 (Sarcoma 180; at 100 mg/kg): 203 % T/C |
| Cc1ccc(S(=O)(=O)NN(C)S(=O)(=O)c2ccc(C)cc2)cc1 [Compound 8, N,N'-bis (4-toluenesulfonyl)-N-methylhydrazine] | – | 100 | 14.0 ± 1.3 days | +3.7% | 13.6 ± 2.4 days | +0.8% | – | – | 143% | – | 147 % T/C | – | 165 % T/C | -2.7% | 147% | Max. % T/C vs. Sarcoma 180 (Sarcoma 180; at 50 mg/kg): 197 % T/C; dosage range of activity against the B16 melanoma (B16 melanoma): 50 to 150 mg/kg |
| COc1ccc(S(=O)(=O)NN(C)S(=O)(=O)c2ccc(OC)cc2)cc1 [Compound 9, N,N'-bis (p-methoxybenzenesulfonyl)-N-methylhydrazine] | – | – | 13.4 ± 1.0 days | +10.9% | 13.2 ± 1.1 days | +1.9% | 12.2 ± 1.2 days | -1.6% | 147% | 136% | – | – | 191 % T/C | +2.4% | 149% | Max. % T/C vs. P388 leukemia (P388 leukemia): 136 % T/C |
| CN(NS(=O)(=O)c1ccc(Cl)cc1)S(=O)(=O)c1ccc(Cl)cc1 [Compound 10, N,N'-bis (p-chlorobenzenesulfonyl)-N-methylhydrazine] | rapid decomposition to a reactive species | 185 | 9.2 ± 0.2 days | +4.1% | 11.4 ± 0.8 days | +4.0% | 11.8 ± 1.1 days | +1.3% | 120% | – | 124 % T/C | virtually inactive | 163 % T/C | +4.8% | 97% | alkylating activity / absorbance (in words) [1]: highest; response vs control in vivo at 150 mg/kg (L1210 leukemia; [7]): 124% |
| Cc1ccc(S(=O)(=O)N(C)NS(C)(=O)=O)cc1 [Compound 12] | – | – | – | – | – | – | – | – | – | – | – | high level of activity against the L1210 leukemia | 207 % T/C | -1.9% | – | IC50 (B16 melanoma cells): 620 nM; Average Survival Time of Treated Animals, days ± SE (L1210 leukemia; [9]): 14.8 ± 0.4 days; Av. Change wt. % (L1210 leukemia; [9]): +9.1%; Average Survival Time of Treated Animals, days ± SE (L1210 leukemia; [10]): 15.0 ± 0.7 days; Av. Change wt. % (L1210 leukemia; [10]): -2.0%; Average Survival Time of Treated Animals, days ± SE (L1210 leukemia; [11]): 19.2 ± 2.0 days; Av. Change wt. % (L1210 leukemia; [11]): -7.9%; response vs control in vivo at 10 mg/kg (L1210 leukemia; Mus musculus, 144 h, 10 mg/kg once daily for six days, L1210, read-out: % T/C): 161%; response vs control in vivo at 20 mg/kg (L1210 leukemia; Mus musculus, 144 h, 20 mg/kg once daily for six days, L1210, read-out: % T/C): 163%; response vs control in vivo at 30 mg/kg (L1210 leukemia; Mus musculus, 144 h, 30 mg/kg once daily for six days, L1210, read-out: % T/C): 209%; % T/C (B16 melanoma; B16, daily dosage of 10 mg/kg (Table IV footnote d)): 206 % T/C; % T/C (B16 melanoma; B16, daily dosage of 20 mg/kg (Table IV footnote d)): 206 % T/C; dosage range of activity against the B16 melanoma (B16 melanoma): 10 to 30 mg/kg; toxicity at higher dosage levels (in words) (B16 melanoma; above 10-30 mg/kg): toxic at higher dosage levels |
| CCS(=O)(=O)NN(C)S(=O)(=O)c1ccc(C)cc1 [Compound 13] | – | – | – | – | – | – | – | – | – | – | – | – | 174 % T/C | -1.1% | – | IC50 (B16 melanoma cells): 160 nM; activity against the B16 melanoma (in words) (B16 melanoma; mouse, in vivo): appreciable levels of activity against the B16 melanoma |
